The values below come from US20220160680A1, “MICROORGANISM MIXTURES, MOLECULES DERIVED THEREFROM, AND METHODS OF USE THEREOF” (B. G. Negev Technologies and Applications Ltd., at …, priority 2018, published 2022).

For one test, the system named is Peritoneal macrophages. Put plainly: In vitro LPS stimulation of peritoneal macrophages, cytokine ELISA (24 hr). The class given is cell-based, mice. Particulars: 100 μM, 0.1 μg/ml LPS. As for the experimental part: Peritoneal macrophages were harvested using the protocol as described previously (Zhang et al., 2008). Elicited macrophages were harvested from WT mice which had received a 2.5 ml intraperitoneal administration of 3% Brewer thioglycolate broth (Sigma, UK) 72 hr prior collection.
Peritoneal macrophages cells (5×10^5/ml) were cultured with 0.1 μg/ml Lipopolysaccharides (LPS-Escherichia coli serotype 0127:B8, Sigma-Aldrich) and in the presence of 100 μM: tryptophol acetate, tyrosol acetate, dopamine HCl, caffeic acid, or combination of tryptophol acetate and tyrosol acetate, for 24 hr. Following culture, supernatants were collected and stored at −20° C. for the detection of the IL-6 cytokine. For IL-la detection, the inventors induced macrophages lysis by adding fresh RPMI medium and thawing three times.
IL-la and IL-6 levels were measured in peritoneal exudate fluids and LPS-stimulated culture supernatants by ELISA. To detect the cytokines, a R&D ELISA kit (Catalog #MLA00 and DY406, respectively) was used as per the manufacturer's instructions. A standard curve was constructed using serial dilutions of purified IL-la or IL-6 starting at a concentration of 15 ng/ml.

Test [1] deals with V. cholerae VC1 (WT) and MM920. Kind of test: V. cholerae biofilm modulation (CLSM, crystal violet). It counts as cell-based, Vibrio cholerae. Conditions: 900 nM CAI-1.
Experimental: The various pathogenic indicator strains used in this study were V. cholerae strain MM920 (ACqsA AluxQ), Vibrio harveyi strain MM30 (LuxS, Tn5). To initiate biofilm formation, bacteria was grown in the absence of the V. cholerae autoinducer 1 (CAI1). In addition, the bacteria were grown in presence of: 900 nM CAI1 (Vibrio Cholerae MM920), 900 nM CAI1, 200 μM Tryptophol acetate and 200 μM Tyrosol acetate, and 200 μM Tryptophol acetate and 200 μM Tyrosol acetate.
Biofilms were grown under shaking conditions at 30° C. in 96-well plate (Thermo Scientific, Rochester, N.Y., USA). […] The stained cells were washed twice with PBS. Biofilm images were taken by CLSM (Plan-Apochromat 20×/0.8 M27, Zeiss LSM880, Germany).
For static biofilm assay, overnight cultures of V. cholerae strain MM920 was diluted 1:10 in fresh LB medium containing a final concentration of 100 μM from each Tryptophol acetate and Tyrosol acetate or DMSO (up to 1%) as control. […] One in absence of the V. cholerae autoinducer (CAI-1) and the other one in presence of 900 nM CAI-1. Biofilms were grown under non-shaking conditions at 37° C. in 96-well plate (Thermo Scientific, Rochester, N.Y., USA). […] The stained cells were washed twice with PBS. Biofilm images were taken by CLSM (Plan-Apochromat 20×/0.8 M27, Zeiss LSM880, Germany).
Biofilm matrixes of V. cholerae VC1 WT (FIGS. 23Ai and 23Aii), and the V. cholerae MM920 mutant (FIGS. 23Aiii and 23Aiv) were grown for 24 hours with or without tryptophol acetate in the growth medium, and stained using the BacLight® Dead/Live Kit to distinguish viable cells.

“Also recorded” adds a separate entry of the source.

In the case of `O=C(O)/C=C/c1ccc(O)c(O)c1` [caffeic acid], the “Production of IL-6” value with Peritoneal macrophages is “comparable results; also recorded: dramatically reduced”.

Take `CCCCCCCCCC(=O)[C@@H](O)CC` [CAI-1, reference compound]: the “Biofilm of V. cholerae MM920, autoinducer alone” value in test [1] is “disruption of biofilm integrity”.
